The text below walks through data of patent US9249466B2, “Methods and compositions for treating cancer” (Agency for Science, Technology and Research, priority 2010, dated 2016).

The structures appear in SMILES notation. “Also recorded” adds a separate entry of the source.

Data set [1] deals with p-Myc(T58/S62). Nature of the data set: Immunoblot analysis of Myc phosphorylation. The format is cell-based, human. Particulars: DLD1 cells; for effect on rapamycin-induced Myc phosphorylation: BX912 2.5 μM or PIK90 5 μM with rapamycin 10 nM. On the technique in general: Immunoblotting shows a protein as a band on a membrane.
The subject of data set [2] is p-AKT (S473). The data set can be described thus: Immunoblot analysis of AKT S473 phosphorylation. The format is cell-based, human. Particulars: DLD1 cells; for effect on AKT S473 phosphorylation: BX912 2.5 μM or PIK90 5 μM with rapamycin 10 nM, 48 hr.
Data set [3] deals with SW480 and DLD1 cells. The data set can be described thus: G2/M phase arrest by PI staining and FACS in SW480 and DLD1 cells. The format is cell-based, human. Particulars: BX912 2.5 μM or PIK90 with rapamycin 10 nM, 48 h. How it is done:
(§1) In brief, 1000 cells were seeded in 96-well plate and the cell number was measured following manufacturer's instruction. To detect the senescence in DLD1-tet on cells, cells were treated with Dox for 48 hr and SA-β-Gal staining was performed according to the protocol of Senescence Detection kit (BioVision). Cell cycle analysis was done by DNA content quantification.
The cells were fixed with 70% ethanol and stained with propidium iodide (50 μg/ml) staining. The stained cells were analyzed by FACScalibur (BD Bioscience) and quantified by using CellQuest software (BD bioscience).

Data set [4] has as its system SW480 cells. Nature of the data set: Morphologies of SW480 cells under treatment. The format is cell-based, human.
Data set [5] relates to DLD1 and SW480 cells. Nature of the data set: Cell viability of DLD1 and SW480 cells under drug combinations. Type of data set: cell-based, human. Particulars: BX912 2.5 μM plus rapamycin 10 nM, 5-day cell viability assay. On the procedure: Cell viability was measured using CellTiter-Glo™ Luminescent Cell Viability Assay (Promega).
as §1

Data set [6] relates to DLD1 and SW480 cells. The data set can be described thus: Monolayer dense foci / colony formation of DLD1 and SW480 cells. Type of data set: cell-based, human. Particulars: BX912 2.5 μM plus rapamycin 10 nM, 2-week colony formation assay. On the procedure:
For DLD1 and HCT116 inducible cells foci formation assay, 1×10^4 cells were seeded on 6-well plate with or without treatment with Dox or rapamcycin. […]

The test system of data set [7] is HEK-TERV cells transformed with PDK1, Myc, shPTEN or PI3K E545K. The data set can be described thus: Cell viability / proliferation of transformed HEK-TERV cells with PLK1 inhibitors. Type of data set: cell-based, human.
The subject of data set [8] is PPP2R2B. Nature of the data set: RT-PCR analysis of PPP2R2B expression. The format is cell-based, human. Particulars: DLD1 cells, 5 μM for 3 days. How it is done:
For RT-PCR, total RNA was reverse-transcribed using oligo(dT)12-18 primer (SEQ ID NO: 6)with Superscript II reverse transcriptase (Invitrogen). 100 ng of cDNA was used for PCR. The primers PPP2R2B F: 5′ […] 3′ (SEQ ID NO: 7) and PPP2R2B R: 5′ (SEQ ID NO: 8) […] 3′ were used to amplify the PPP2R2B cDNA.

The conditions of data set [9]: cited from earlier work.
The subject of data set [10] is behavioral tasks and aggregate formation. Particulars: mouse model of HD; cited from earlier work.
The subject of data set [11] is human cancers. Particulars: also with intermittent dosing schedule; cited from earlier work.

For the compound `COc1ccc2c(c1OC)N=C(NC(=O)c1cccnc1)N1CCN=C21` [PIK90], in data set [1] (48 hr), the “effect on rapamycin-induced Myc phosphorylation” value is on record as “unable to inhibit rapamycin-induced Myc phosphorylation”. In data set [2], the “effect on AKT S473 phosphorylation” value is on record as “effectively abolished the AKT S473 phosphorylation”. In addition, in data set [3], the “G2/M arrest in combination with rapamycin” value is given as “not”. For the same compound, in data set [4], the morphological change result was “not”.
`O=C(Nc1cccc(Nc2ncc(Br)c(NCCc3cnc[nH]3)n2)c1)N1CCCC1` [BX912]: in data set [1] (48 hr), the “effect on rapamycin-induced Myc phosphorylation” value is “abolished rapamycin-induced Myc phosphorylation”. The “effect on AKT S473 phosphorylation” value in data set [2] is recorded as “had no much effect on AKT S473”. Further, the “G2/M arrest in combination with rapamycin” value in data set [3] is on record as “synergized with rapamycin to induce strong G2/M arrest”. Further, in data set [5], the “loss of cell viability in combination with rapamycin” value is “synergistic loss of cell viability”. The “loss of cell viability in combination with rapamycin (colony formation)” value in [6] is “synergistic loss of cell viability”. Moreover, in data set [4], the morphological change result is listed as “induced a morphological change similar to that seen upon PPP2R2B re-expression”.
For `Cn1c(=O)n(-c2ccc(C(C)(C)C#N)cc2)c2c3cc(-c4cnc5ccccc5c4)ccc3ncc21` [BEZ235], in data set [1] (BEZ 235 100 nM, 48 hr), the Myc phosphorylation entry is “induced Myc phosphorylation”.
For the compound `COc1cc2ncn(-c3cc(OCc4ccccc4C(F)(F)F)c(C(N)=O)s3)c2cc1OC` [GW843682X], in data set [7] (HEK-PDK1 and HEK-Myc vs HEK-PMN and HEK-shPTEN cells, 4 days), the “selectivity of inhibition of proliferation / cell viability (dose-response)” value is reported as “more selectively decrease the cell viability of PDK1 or Myc-transformed cells; also recorded: more selectively inhibit the proliferation of PDK1 or Myc-transformed HEK cells”. The “growth inhibition in kinase inhibitor screen” value in data set [7] (HEK-PDK1 cells compared to HEK-vector control cells (PMN)) is reported as “selective growth inhibition effect”.
As for `Nc1ncn([C@H]2C[C@H](O)[C@@H](CO)O2)c(=O)n1` [5-aza-dC], the PPP2R2B expression entry in data set [8] is reported as “re-expression of PPP2R2B”.
Consider `CO[C@H]1C[C@@H]2CC[C@@H](C)[C@@](O)(O2)C(=O)C(=O)N2CCCC[C@H]2C(=O)O[C@H]([C@H](C)C[C@@H]2CC[C@@H](OC(=O)C(C)(CO)CO)[C@H](OC)C2)CC(=O)[C@H](C)/C=C(\C)[C@@H](O)[C@@H](OC)C(=O)[C@H](C)C[C@H](C)/C=C/C=C/C=C/1C` [CCI 779, rapamycin 42-[2,2-bis(hydroxymethyl)propionate]], for which the water solubility entry in data set [9] was “water soluble”. Moreover, in data set [10], the “behavioral performance and aggregate formation” value is “improved performance on 4 different behavioral tasks and decreased aggregate formation”. For the same compound, in data set [11], the growth of cancers entry is “inhibit the growth of a diverse range of cancer types”.
On to `Oc1cccc(-c2nc(N3CCOCC3)c3oc4ncccc4c3n2)c1` [PIK-103], for which, in data set [1] (0.5 μM), the Myc phosphorylation entry is on record as “enhanced Myc phosphorylation”. In [2] (0.5 μM), the “AKT S473 phosphorylation” value is “reduced AKT 5473 phosphorylation”.
